From patent publication US20030199098A1, “Advanced tool for the quantification uniformity within biological processes and conversions” (priority 2000, published 2003)

Experiments:
[1] = humans, routine clinical experiments
From the text: This tool is applicable no matter which technique or equipment is used to obtain the initial readings.

clinical = conditions: male, human, in vivo
From the text: FIG. 3 ethanol concurrency test (simultaneously performed on the same human subject during a single experimental session) in a graphical representation
The following TABLE 1 of results describes the FIG. 3 curves:
The INTOXIMETER EC/IR 3000, which was used for the data presented in the TABLE 1, was made by Intoximeter, Inc. of St. Louis, Mo. The transcutaneous ethanol sensors (TES #33, #39) were made by Giner Inc. of Waltham, Mass.

- Index-K efficiency corridor for alcohol catabolism [1]: up to 3.4
- half-life (clinical): 1.48 h
SMILES: CCO [ethanol]
